In patent publication US6642276B2, “Controlled release macrolide pharmaceutical formulations” (M/S Ind-Swift Limited, priority 2001, dated 2003):

How the values were obtained:
Type in all cases: physicochemical
[1] = pH solubility studies (mg of drug dissolved per ml of buffer)
[2] = pH of 0.2% suspension in water: methanol (19:1)
[3] = Stability studies of bulk drug, physical mixture and citrate salt on storage

pH solubility studies (mg of Clarithromycin dissolved per ml of buffer) ([1]; pH 3.0 (KCl Buffer)): 2.00 mg/ml
pH solubility studies (mg of Clarithromycin dissolved per ml of buffer) ([1]; pH 4.0 (KCl Buffer)): 0.33 mg/ml
pH solubility studies (mg of Clarithromycin dissolved per ml of buffer) ([1]; pH 5.0 (Phosphate Buffer)): 10.09 mg/ml
pH solubility studies (mg of Clarithromycin dissolved per ml of buffer) ([1]; pH 6.0 (Phosphate Buffer)): 7.46 mg/ml
pH solubility studies (mg of Clarithromycin dissolved per ml of buffer) ([1]; pH 7.0 (Phosphate Buffer)): 2.00 mg/ml
pH of 0.2% suspension in water: methanol (19:1) [2]: 7.5 to 10.0
Stability Studies: change / Degradation of Clarithromycin ([3]; 40° C. and 75% RH-2 Months): No Change/No
Stability Studies: change / Degradation of Clarithromycin ([3]; 40° C. and 75% RH-3 Months): No Change/No
Stability Studies: change / Degradation of Clarithromycin ([3]; 40° C. and 75% RH-4 Months): No Change/No
Stability Studies: change / Degradation of Clarithromycin ([3]; 40° C. and 75% RH-5 Months): No Change/No
Stability Studies: change / Degradation of Clarithromycin ([3]; 60° C.-1 month): No Change/No
Stability Studies: change / Degradation of Clarithromycin ([3]; 60° C.-2 months): No Change/No
Stability Studies: change / Degradation of Clarithromycin ([3]; 60° C.-3 months): No Change/No
Stability Studies: change / Degradation of Clarithromycin ([3]; 85° C.-1 day): No Change/No
Stability Studies: change / Degradation of Clarithromycin ([3]; 85° C.-4 days): No Change/No
Stability Studies: change / Degradation of Clarithromycin ([3]; 85° C.-7 days): No Change/No
Stability Studies: change / Degradation of Clarithromycin ([3]; 85°-15 days): No Change/No
Stability Studies: change / Degradation of Clarithromycin ([3]; RT-3 Months): No Change/No
Stability Studies: change / Degradation of Clarithromycin ([3]; RT-6 Months): No Change/No
Stability Studies: change / Degradation of Clarithromycin ([3]; RT-9 Months): No Change/No
Stability Studies: change / Degradation of Clarithromycin ([3]; RT-12 Months): No Change/No
SMILES: CC[C@H]1OC(=O)[C@H](C)[C@@H](O[C@H]2C[C@@](C)(OC)[C@@H](O)[C@H](C)O2)[C@H](C)[C@@H](O[C@@H]2O[C@H](C)C[C@H](N(C)C)[C@H]2O)[C@](C)(OC)C[C@@H](C)C(=O)[C@H](C)[C@@H](O)[C@]1(C)O [Clarithromycin, 6-O-methylerythromycinA]
